From US11865098B1, “Methods and compositions for treating excessive sleepiness” (Axsome Malta Ltd., priority 2017, dated 2024)

Tested on: patients with narcolepsy type 1 or type 2
Assay: MWT, 12-week phase 3 study in narcolepsy
Type: in vivo, human
Conditions: mITT
Procedure: The MWT is an objective test used to measure how alert a subject is during the day. The test consists of four sleep trials with two hours in between the trials. The first trial is performed 1.5-3 hours after the subject's normal wake-up time. Sensors are placed on the head, face, and chin to detect when the subject is asleep and awake during the test. The subject sits quietly in bed with his or her back and head supported by a pillow and is asked to sit still and look straight ahead while trying to stay awake as long as possible. Each trial lasts 40 minutes or until the subject is asleep for 90 seconds. Between trials, the subject stays out of bed and occupies himself or herself to remain awake. Falling asleep in an average of less than eight minutes is considered abnormal. About 40-60% of subjects with normal sleep stay awake for the entire 40 minutes of all four trials.
The study was a 12-week, double-blind, randomized, placebo-controlled, parallel-group study. Patients were randomized (1:1:1:1) to receive placebo or APC 75, 150, or 300 mg; randomization was stratified by the presence or absence of cataplexy.
Key inclusion criteria included adults 18-75 years old, inclusive, with a diagnosis of narcolepsy type 1 or type 2 according to ICSD-3 (American Academy of Sleep Medicine. The International Classification of Sleep Disorders—Third Edition (ICSD-3). Darien, IL: American Academy of Sleep Medicine; 2014) or DSM-5 (American Psychiatric Association. Diagnostic and Statistical Manual of Mental Disorders Fifth Edition (DSM-5). Arlington, VA: American Psychiatric Association; 2013) criteria, baseline mean sleep latency <25 minutes on the first 4 trials of a 5-trial, 40-minute Maintenance of Wakefulness Test (MWT) and baseline Epworth Sleepiness Scale (ESS) (Johns, Sleep 14(6):540 (1991)) score ≥10, usual nightly total sleep time ≥6 hours, and body mass index between 18 and 45 kg/m^2.
Co-primary endpoints were change from baseline to week 12 in MWT mean sleep latency and ESS score. The key secondary endpoint was the percentage of patients who reported improvement on the Patient Global Impression of Change (PGI-C) (Guy, ECDEU assessment manual for psychopharmacology, revised. US Department of Health, Education, and Welfare publication (ADM 76-338). Rockville, MD: National Institute of Mental Health; 1976) at week 12. Other secondary and exploratory endpoints included changes on function and quality-of-life and changes in the number of cataplexy attacks per week. Safety evaluation included adverse events, laboratory tests, and vital signs.
Efficacy analyses were based on the modified intent-to-treat population (mITT), defined as all patients who were randomized, received at least 1 dose of study drug, and had baseline and at least 1 post-baseline evaluation of both MWT and ESS. MWT and ESS were analyzed using a mixed-effect repeated measures (MMRM) model. PGI-C was analyzed using a chi-square test. A fixed hierarchical testing procedure was used to correct for multiplicity, starting with the highest dose of APC for the co-primary endpoints and the key secondary endpoint; testing proceeded with each subsequent lower doses.

With `NC(=O)OC[C@H](N)Cc1ccccc1` [JZP-110, (R)-2-amino-3-phenylpropyl carbamate] the “MWT mean sleep latency increase from baseline >=5 minutes, % of subjects” value (75 mg, Week 1) was “(34.5) %”, the “MWT mean sleep latency increase from baseline >=5 minutes, n subjects” value (75 mg, Week 1) was 10 and the “MWT mean sleep latency increase from baseline >=10 minutes, % of subjects” value (75 mg, Week 1) was “(24.1) %”. For the same compound, the “MWT mean sleep latency increase from baseline >=10 minutes, n subjects” value (75 mg, Week 1) was 7, the “MWT mean sleep latency increase from baseline >=15 minutes, % of subjects” value (75 mg, Week 1) was “(17.2) %” and the “MWT mean sleep latency increase from baseline >=15 minutes, n subjects” value (75 mg, Week 1) was 5. The “MWT mean sleep latency increase from baseline >=20 minutes, % of subjects” value (75 mg, Week 1) was “(10.3) %”, the “MWT mean sleep latency increase from baseline >=20 minutes, n subjects” value (75 mg, Week 1) was 3 and the “MWT mean sleep latency increase from baseline >=25 minutes, % of subjects” value (75 mg, Week 1) was “(3.4) %”. The “MWT mean sleep latency increase from baseline >=25 minutes, n subjects” value (75 mg, Week 1) was 1, the “MWT mean sleep latency increase from baseline >=30 minutes, n subjects” value (75 mg, Week 1) was 0 and the “MWT mean sleep latency increase from baseline >=5 minutes, % of subjects” value (75 mg, Week 4) was “(42.0) %”. For the same compound, the “MWT mean sleep latency increase from baseline >=5 minutes, n subjects” value (75 mg, Week 4) was 21, the “MWT mean sleep latency increase from baseline >=10 minutes, % of subjects” value (75 mg, Week 4) was “(24.0) %” and the “MWT mean sleep latency increase from baseline >=10 minutes, n subjects” value (75 mg, Week 4) was 12. The “MWT mean sleep latency increase from baseline >=15 minutes, % of subjects” value (75 mg, Week 4) was “(12.0) %”, the “MWT mean sleep latency increase from baseline >=15 minutes, n subjects” value (75 mg, Week 4) was 6 and the “MWT mean sleep latency increase from baseline >=20 minutes, % of subjects” value (75 mg, Week 4) was “(6.0) %”. The “MWT mean sleep latency increase from baseline >=20 minutes, n subjects” value (75 mg, Week 4) was 3, the “MWT mean sleep latency increase from baseline >=25 minutes, n subjects” value (75 mg, Week 4) was 0 and the “MWT mean sleep latency increase from baseline >=30 minutes, n subjects” value (75 mg, Week 4) was 0. For the same compound, the “MWT mean sleep latency increase from baseline >=5 minutes, % of subjects” value (75 mg, Week 12) was “(41.3) %”, the “MWT mean sleep latency increase from baseline >=5 minutes, n subjects” value (75 mg, Week 12) was 19 and the “MWT mean sleep latency increase from baseline >=10 minutes, % of subjects” value (75 mg, Week 12) was “(19.6) %”. The “MWT mean sleep latency increase from baseline >=10 minutes, n subjects” value (75 mg, Week 12) was 9, the “MWT mean sleep latency increase from baseline >=15 minutes, % of subjects” value (75 mg, Week 12) was “(15.2) %” and the “MWT mean sleep latency increase from baseline >=15 minutes, n subjects” value (75 mg, Week 12) was 7. For the same compound, the “MWT mean sleep latency increase from baseline >=20 minutes, % of subjects” value (75 mg, Week 12) was “(8.7) %”, the “MWT mean sleep latency increase from baseline >=20 minutes, n subjects” value (75 mg, Week 12) was 4 and the “MWT mean sleep latency increase from baseline >=25 minutes, % of subjects” value (75 mg, Week 12) was “(2.2) %”. For the same compound, the “MWT mean sleep latency increase from baseline >=25 minutes, n subjects” value (75 mg, Week 12) was 1, the “MWT mean sleep latency increase from baseline >=30 minutes, n subjects” value (75 mg, Week 12) was 0 and the “MWT mean sleep latency increase from baseline >=5 minutes, % of subjects” value (150 mg, Week 1) was “(68.2) %”. For the same compound, the “MWT mean sleep latency increase from baseline >=5 minutes, n subjects” value (150 mg, Week 1) was 15, the “MWT mean sleep latency increase from baseline >=10 minutes, % of subjects” value (150 mg, Week 1) was “(50.0) %” and the “MWT mean sleep latency increase from baseline >=10 minutes, n subjects” value (150 mg, Week 1) was 11. The “MWT mean sleep latency increase from baseline >=15 minutes, % of subjects” value (150 mg, Week 1) was “(22.7) %”, the “MWT mean sleep latency increase from baseline >=15 minutes, n subjects” value (150 mg, Week 1) was 5 and the “MWT mean sleep latency increase from baseline >=20 minutes, % of subjects” value (150 mg, Week 1) was “(9.1) %”. The “MWT mean sleep latency increase from baseline >=20 minutes, n subjects” value (150 mg, Week 1) was 2, the “MWT mean sleep latency increase from baseline >=25 minutes, n subjects” value (150 mg, Week 1) was 0 and the “MWT mean sleep latency increase from baseline >=30 minutes, n subjects” value (150 mg, Week 1) was 0. For the same compound, the “MWT mean sleep latency increase from baseline >=5 minutes, % of subjects” value (150 mg, Week 4) was “(61.2) %”, the “MWT mean sleep latency increase from baseline >=5 minutes, n subjects” value (150 mg, Week 4) was 30 and the “MWT mean sleep latency increase from baseline >=10 minutes, % of subjects” value (150 mg, Week 4) was “(42.9) %”. The “MWT mean sleep latency increase from baseline >=10 minutes, n subjects” value (150 mg, Week 4) was 21, the “MWT mean sleep latency increase from baseline >=15 minutes, % of subjects” value (150 mg, Week 4) was “(30.6) %” and the “MWT mean sleep latency increase from baseline >=15 minutes, n subjects” value (150 mg, Week 4) was 15. For the same compound, the “MWT mean sleep latency increase from baseline >=20 minutes, % of subjects” value (150 mg, Week 4) was “(16.3) %”, the “MWT mean sleep latency increase from baseline >=20 minutes, n subjects” value (150 mg, Week 4) was 8 and the “MWT mean sleep latency increase from baseline >=25 minutes, % of subjects” value (150 mg, Week 4) was “(10.2) %”. For the same compound, the “MWT mean sleep latency increase from baseline >=25 minutes, n subjects” value (150 mg, Week 4) was 5, the “MWT mean sleep latency increase from baseline >=30 minutes, n subjects” value (150 mg, Week 4) was 0 and the “MWT mean sleep latency increase from baseline >=5 minutes, % of subjects” value (150 mg, Week 12) was “(58.0) %”. The “MWT mean sleep latency increase from baseline >=5 minutes, n subjects” value (150 mg, Week 12) was 29, the “MWT mean sleep latency increase from baseline >=10 minutes, % of subjects” value (150 mg, Week 12) was “(48.0) %” and the “MWT mean sleep latency increase from baseline >=10 minutes, n subjects” value (150 mg, Week 12) was 24. The “MWT mean sleep latency increase from baseline >=15 minutes, % of subjects” value (150 mg, Week 12) was “(36.0) %”, the “MWT mean sleep latency increase from baseline >=15 minutes, n subjects” value (150 mg, Week 12) was 18 and the “MWT mean sleep latency increase from baseline >=20 minutes, % of subjects” value (150 mg, Week 12) was “(18.0) %”. The “MWT mean sleep latency increase from baseline >=20 minutes, n subjects” value (150 mg, Week 12) was 9, the “MWT mean sleep latency increase from baseline >=25 minutes, % of subjects” value (150 mg, Week 12) was “(8.0) %” and the “MWT mean sleep latency increase from baseline >=25 minutes, n subjects” value (150 mg, Week 12) was 4. The “MWT mean sleep latency increase from baseline >=30 minutes, % of subjects” value (150 mg, Week 12) was “(2.0) %”, the “MWT mean sleep latency increase from baseline >=30 minutes, n subjects” value (150 mg, Week 12) was 1 and the “MWT mean sleep latency increase from baseline >=5 minutes, % of subjects” value (300 mg, Week 1) was “(64.0) %”. The “MWT mean sleep latency increase from baseline >=5 minutes, n subjects” value (300 mg, Week 1) was 16, the “MWT mean sleep latency increase from baseline >=10 minutes, % of subjects” value (300 mg, Week 1) was “(56.0) %” and the “MWT mean sleep latency increase from baseline >=10 minutes, n subjects” value (300 mg, Week 1) was 14. The “MWT mean sleep latency increase from baseline >=15 minutes, % of subjects” value (300 mg, Week 1) was “(44.0) %”.
